Consider 1 compound from patent US5514662A, “Use of amphotericin B derivatives as protease inhibitors” (priority 1991, dated 1996).

One experiment deals with viral antigen p24. In words: Expression of soluble viral antigen p24 in HIV-1 infected Jurkat and CEM cells. Format: cell-based. The procedure: For the infection, fresh Jurkat or CEM type cells are centrifuged and the pellet is incubated for 2 hours at 37° C. with the viral preparation (10000 cpm of reverse transcriptase activity/10^6 cells, which corresponds to a multiplicity of infection of 0.04 to 0.1). The cells are then washed and resuspended (0.5×10^6/ ml) in fresh culture medium. Reverse transcriptase activity is determined at specific times after the infection, using the acellular infected cell supernatant.
The viral antigen p24 was quantified in the infected-cell supernatant by radioimmunological assay using the procedure recommended by the manufacturer (ABBOTT, Diagnostics Division).
The expression of the soluble viral antigen p24 was investigated at the same time as the reverse transcriptase activity, in the cell culture supernatants.
The AmB treatment is carried out under the same conditions as the DABF-AmB treatment.
In another experiment, 10 μM of DABF-AmB are added either during pretreatment 24 hours before the infection, or alternatively during the 2-hour inoculation stage, or alternatively during continuous treatment, as described above, for 12 days following the infection.

A further experiment relates to HIV2-rod. In words: Formation of syncytia in HUT78 cells infected with HIV2-rod. Format: cell-based, HIV-2. On the procedure: HUT78 cells were inoculated in 96-well plates in an amount of 2×10^4 cells per well, in […]. They were infected with various viral concentrations and DABF-AmB was added immediately after the infection, at various concentrations. The formation of syncytia was evaluated after 3 and 5 days by direct reading under an inverted microscope (semi-quantitative test).

Turning to `C[C@@H]1[C@H](O)[C@@H](C)/C=C/C=C/C=C/C=C/C=C/C=C/C=C/[C@H](O[C@@H]2O[C@H](C)[C@@H](O)[C@H](NCC(=O)[C@@H](O)[C@@H]3OC(c4ccccc4)OC[C@H]3O)[C@@H]2O)C[C@@H]2O[C@](O)(C[C@@H](O)C[C@@H](O)[C@H](O)CC[C@@H](O)C[C@@H](O)CC(=O)O[C@H]1C)C[C@H](O)[C@H]2C(=O)O` (stereo partly drawn) [DABF-AmB, 1-deoxy-1-amino-4,6-O-benzylidene-D-fructosyl-AmB], the “inhibition of p24 secretion” value with viral antigen p24 (10 μM added during the 2-hour inoculation stage) and in the experiment with viral antigen p24 (10 μM added prior to infection (24 hours pretreatment)) was “does not bring about any significant inhibition” each time. In addition, the minimal effective concentration with viral antigen p24 (Human immunodeficiency virus 1, 288 h, read-out: concentration for significant inhibition of p24) was greater than 5 µM. Besides, the “efficacy on the multiplication of HIV compared with AmB” value with viral antigen p24 (p24, 10 μM, 4 and 8 days) was “substantially greater than that of AmB”. Further, the formation of syncytia result in the experiment on HIV2-rod (5 μM, 10 TCID50, 3 days) is “- and +”; in the experiment on HIV2-rod (5 μM, 10 TCID50, 5 days), “- and +”; with HIV2-rod (5 μM, 100 TCID50, 3 days), “+”; in the experiment on HIV2-rod (10 μM, 10 TCID50, 3 days), “-”; in the experiment on HIV2-rod (10 μM, 10 TCID50, 5 days) it was “-”; in the experiment with HIV2-rod (10 μM, 100 TCID50, 3 days), “+ and -”. In addition, the formation of syncytia result is given as “-” with HIV2-rod (50 μM, 10 TCID50, 5 days); “-” in the experiment on HIV2-rod (50 μM, 100 TCID50, 3 days); “-” in the experiment with HIV2-rod (50 μM, 100 TCID50, 5 days); “-” in the experiment on HIV2-rod (100 μM, 100 TCID50, 3 days); “-” in the experiment with HIV2-rod (100 μM, 100 TCID50, 5 days). The “inhibition of formation of syncytia (in words)” value with HIV2-rod (HUT78, HIV-2) is on record as “in a dose-dependent manner”.
